Data reported in US11786517B2, “Methods of treatment using a JAK inhibitor compound” (THERAVANCE BIOPHARMA R&D IP, LLC, priority 2017, dated 2023).

Tests used:
[1] = test system: IL-6 induced pSTAT3 in rat retina/choroid; test: Pharmacodynamic assay: inhibition of IL6-induced pSTAT3 in rats; format: in vivo, Female Lewis rats; conditions: 3 day pre-treatment
Experimental: The ability of a single intravitreal administration of test compound to inhibit IL-6 induced pSTAT3 was measured in rat retina/choroid homogenates.
Suspension formulations were prepared by combining crystalline compound 1 of Example 1 with 0.5% hydroxypropyl methylcellulose (HPMC E5 LV), 0.02% Tween 80, and 0.9% sodium chloride in purified water to attain target concentrations of 3 mg/mL and 10 mg/mL.
Female Lewis rats were intravitreally (IVT) dosed (5 μL per eye) with the suspension formulations or with the drug vehicle. Three days later, IL-6 (Peprotech; 0.1 mg/mL; 5 μL per eye) or vehicle was intravitreally administered to induce pSTAT3. Ocular tissues were dissected one hour after the second IVT injection with IL-6. The retina/choroid tissues were homogenized and pSTAT3 levels were measured using an ELISA (Cell Signaling Technology). The percent inhibition of IL-6-induced pSTAT3 was calculated in comparison to the vehicle/vehicle and vehicle/IL-6 groups. Inhibition of greater than 100% reflects a reduction of pSTAT3 levels to below those observed in the vehicle/vehicle group.

[2] = test system: IL-13 induced pSTAT6 in lung tissue; test: Murine model of IL-13 induced pSTAT6 induction in lung tissue; format: in vivo, balb/c mice; conditions: mouse lung, 0.5 mg/mL 50 μL oral aspiration
Experimental: Il-13 is an important cytokine underlying the pathophysiology of asthma (Kudlacz et al. Eur. J. Pharmacol, 2008, 582, 154-161). IL-13 binds to cell surface receptors activating members of the Janus family of kinases (JAK) which then phosphorylate STAT6 and subsequently activates further transcription pathways. In the described model, a dose of IL-13 was delivered locally into the lungs of mice to induce the phosphorylation of STAT6 (pSTAT6) which is then measured as the endpoint.
Adult balb/c mice from Harlan were used in the assay. On the day of study, animals were lightly anesthetized with isoflurane and administered either vehicle or test compound (0.5 mg/mL, 50 μL total volume over several breaths) via oral aspiration. Animals were placed in lateral recumbency post dose and monitored for full recovery from anesthesia before being returned to their home cage. Four hours later, animals were once again briefly anesthetized and challenged with either vehicle or IL-13 (0.03 μg total dose delivered, 50 μL total volume) via oral aspiration before being monitored for recovery from anesthesia and returned to their home cage. […] using an anti-pSTAT6 ELISA (rabbit mAb capture/coating antibody; mouse mAb detection/report antibody: anti-pSTAT6-pY641; secondary antibody: anti-mouse IgG-HRP) and analyzed for total drug concentration as described above in Assay 11. […]

[3] = test system: IL-27 induced CXCL10 secretion; test: Inhibition of IL-27 induced CXCL10 in human 3D airway cultures; format: cell-based; conditions: 192 h, at 0.1 μM (first of two values so printed), 8 days, ±STDV
Experimental: (§1) EpiAirway tissue cultures were obtained from Mattek (AIR-100). Cultures were derived from asthmatic donors. In a cell culture insert, human derived tracheal/bronchial epithelial cells were grown and differentiated on a porous membrane support, allowing an air-liquid interface with warmed culture medium below the cells and a gaseous test atmosphere above. Tissues were cultured in maintenance media (Mattek, AIR-100-MM) in a 37° C., 5% CO2 humidified incubator. Four donors were tested. On Day 0, tissue cultures were treated with test compounds at 10 μM, 1 μM and/or 0.1 μM. Compounds were diluted in dimethyl sulfoxide (DMSO, Sigma) to a final concentration of 0.1%. DMSO at 0.1% was used as a vehicle control. Test compounds were incubated with cultures for 1 hour at 37° C., 5% CO2, followed by the addition of pre-warmed media containing IFNγ (R&D Systems) or IL-27 (R&D Systems) at a final concentration at 100 ng/ml. Tissue cultures were maintained for 8 days. Media was replaced every 2 days with fresh media containing compounds and IFNγ or IL-27. On Day 8, tissue cultures and supernatants were collected for analysis. […] Data is expressed as % Inhibition+/−standard deviation (±STDV). Percent inhibition was determined by compound inhibitory potency against IFNγ or IL-27 induced CXCL10 or CXCL9 secretion compared to vehicle treated cells. […]

[4] = test system: IFNγ induced CXCL10 secretion; test: Inhibition of IFNγ induced CXCL10 in human 3D airway cultures; format: cell-based; conditions: at μM (so in the source), 8 days, ±STDV
Experimental: as §1

Question: For `CCc1cc(O)c(F)cc1-c1ccc2c(-c3nc4c([nH]3)CCN(C3CCN(C)CC3)C4)n[nH]c2c1` [compound 1, 5-ethyl-2-fluoro-4-(3-(5-(1-methylpiperidin-4-yl)-4,5,6,7-tetrahydro-1H-imidazo[4,5-c]pyridin-2-yl)-1H-indazol-6-yl)phenol], which “inhibition of IL-6-induced pSTAT3” value ([1]; 15 μg intravitreal suspension) is on record?
Answer: 33%

Question: And the “inhibition of IL-6-induced pSTAT3” value ([1]; 50 μg intravitreal suspension)?
Answer: 109%

Question: And the “inhibition of STAT6 phosphorylation” value [2]?
Answer: about 60%

Question: And the inhibition at 0.1 µM [3]?
Answer: 98%

Question: And the “inhibition of IFNγ induced CXCL10 secretion” value [4]?
Answer: 71%±19
